Experimental data published in PubChem BioAssay (NCI).
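48-hour exposure; five concentrations; linearly interpolated endpoints. At the GI50, growth is halved. TGI marks complete inhibition of growth.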

Key:
Experiment in all cases: NCI-60 cell line screen, 48 h
SF-295 CNS = test system: SF-295 CNS
SNB-19 CNS = test system: SNB-19 CNS
IGROV1 ovarian = test system: IGROV1 ovarian
OVCAR-4 ovarian = test system: OVCAR-4 ovarian
NCI-H23 lung = test system: NCI-H23 lung
UACC-62 melanoma = test system: UACC-62 melanoma
NCI-H226 lung = test system: NCI-H226 lung
LXFL 529 NSCLC = test system: LXFL 529 NSCLC
SK-MEL-28 melanoma = test system: SK-MEL-28 melanoma
HOP-18 NSCLC = test system: HOP-18 NSCLC
RPMI-8226 leukemia = test system: RPMI-8226 leukemia
KM20L2 colon = test system: KM20L2 colon
NCI-H460 lung = test system: NCI-H460 lung
OVCAR-8 ovarian = test system: OVCAR-8 ovarian
SNB-75 CNS = test system: SNB-75 CNS
UO-31 renal = test system: UO-31 renal
UACC-257 melanoma = test system: UACC-257 melanoma
HT29 colon = test system: HT29 colon
HL-60(TB) leukemia = test system: HL-60(TB) leukemia
A549 NSCLC = test system: A549 NSCLC
HCT-116 colon = test system: HCT-116 colon
HOP-92 NSCLC = test system: HOP-92 NSCLC
MALME-3M melanoma = test system: MALME-3M melanoma
KM12 colon = test system: KM12 colon
SNB-78 CNS = test system: SNB-78 CNS
U251 CNS = test system: U251 CNS
NCI-H522 lung = test system: NCI-H522 lung
M14 melanoma = test system: M14 melanoma
DMS 273 small cell lung = test system: DMS 273 small cell lung
A498 renal = test system: A498 renal
MOLT-4 leukemia = test system: MOLT-4 leukemia
M19-MEL melanoma = test system: M19-MEL melanoma
RXF 393 renal = test system: RXF 393 renal
SW-620 colon = test system: SW-620 colon
SF-539 CNS = test system: SF-539 CNS
DLD-1 colon = test system: DLD-1 colon
SK-OV-3 ovarian = test system: SK-OV-3 ovarian
OVCAR-3 ovarian = test system: OVCAR-3 ovarian
SF-268 CNS = test system: SF-268 CNS
CCRF-CEM leukemia = test system: CCRF-CEM leukemia
K-562 leukemia = test system: K-562 leukemia
786-0 renal = test system: 786-0 renal
TK-10 renal = test system: TK-10 renal
HCT-15 colon = test system: HCT-15 colon
SK-MEL-5 melanoma = test system: SK-MEL-5 melanoma
LOX IMVI melanoma = test system: LOX IMVI melanoma
HOP-62 NSCLC = test system: HOP-62 NSCLC
COLO 205 colon = test system: COLO 205 colon
XF 498 CNS = test system: XF 498 CNS
CAKI-1 renal = test system: CAKI-1 renal
SN12C renal = test system: SN12C renal
ACHN renal = test system: ACHN renal
SK-MEL-2 melanoma = test system: SK-MEL-2 melanoma
HCC-2998 colon = test system: HCC-2998 colon

## N[C@@H]1CCCC[C@@H]1N.O=P([O-])([O-])CNCP(=O)([O-])[O-].[Pt+2]
SF-295 CNS
  GI50: > 100 µM
  TGI: > 100 µM
SNB-19 CNS
  GI50: > 100 µM
  TGI: > 100 µM
IGROV1 ovarian
  GI50: > 100 µM
  TGI: > 100 µM
OVCAR-4 ovarian
  GI50: > 100 µM
  TGI: > 100 µM
NCI-H23 lung
  GI50: > 100 µM
  TGI: > 100 µM
UACC-62 melanoma
  GI50: > 100 µM
  TGI: > 100 µM
NCI-H226 lung
  GI50: > 100 µM
  TGI: > 100 µM
LXFL 529 NSCLC
  GI50: > 100 µM
  TGI: > 100 µM
SK-MEL-28 melanoma
  GI50: > 100 µM
  TGI: > 100 µM
HOP-18 NSCLC
  GI50: > 100 µM
  TGI: > 100 µM
RPMI-8226 leukemia
  GI50: > 100 µM
  TGI: > 100 µM
KM20L2 colon
  GI50: > 100 µM
  TGI: > 100 µM
NCI-H460 lung
  GI50: > 100 µM
  TGI: > 100 µM
OVCAR-8 ovarian
  GI50: > 100 µM
  TGI: > 100 µM
SNB-75 CNS
  GI50: > 100 µM
  TGI: > 100 µM
UO-31 renal
  GI50: > 100 µM
  TGI: > 100 µM
UACC-257 melanoma
  GI50: > 100 µM
  TGI: > 100 µM
HT29 colon
  GI50: > 100 µM
  TGI: > 100 µM
HL-60(TB) leukemia
  GI50: > 100 µM
  TGI: > 100 µM
A549 NSCLC
  GI50: > 100 µM
  TGI: > 100 µM
HCT-116 colon
  GI50: > 100 µM
  TGI: > 100 µM
HOP-92 NSCLC
  GI50: > 100 µM
  TGI: > 100 µM
MALME-3M melanoma
  GI50: > 100 µM
  TGI: > 100 µM
KM12 colon
  GI50: > 100 µM
  TGI: > 100 µM
SNB-78 CNS
  GI50: > 100 µM
  TGI: > 100 µM
U251 CNS
  GI50: > 100 µM
  TGI: > 100 µM
NCI-H522 lung
  GI50: > 100 µM
  TGI: > 100 µM
M14 melanoma
  GI50: > 100 µM
  TGI: > 100 µM
DMS 273 small cell lung
  GI50: > 100 µM
  TGI: > 100 µM
A498 renal
  GI50: > 100 µM
  TGI: > 100 µM
MOLT-4 leukemia
  GI50: > 100 µM
  TGI: > 100 µM
M19-MEL melanoma
  GI50: > 100 µM
  TGI: > 100 µM
RXF 393 renal
  GI50: > 100 µM
  TGI: > 100 µM
SW-620 colon
  GI50: > 100 µM
  TGI: > 100 µM
SF-539 CNS
  GI50: > 100 µM
  TGI: > 100 µM
DLD-1 colon
  GI50: > 100 µM
  TGI: > 100 µM
SK-OV-3 ovarian
  GI50: > 100 µM
  TGI: > 100 µM
OVCAR-3 ovarian
  GI50: > 100 µM
  TGI: > 100 µM
SF-268 CNS
  GI50: > 100 µM
  TGI: > 100 µM
CCRF-CEM leukemia
  GI50: > 100 µM
  TGI: > 100 µM
K-562 leukemia
  GI50: > 100 µM
  TGI: > 100 µM
786-0 renal
  GI50: > 100 µM
  TGI: > 100 µM
TK-10 renal
  GI50: > 100 µM
  TGI: > 100 µM
HCT-15 colon
  GI50: > 100 µM
  TGI: > 100 µM
SK-MEL-5 melanoma
  GI50: > 100 µM
  TGI: > 100 µM
LOX IMVI melanoma
  GI50: > 100 µM
  TGI: > 100 µM
HOP-62 NSCLC
  GI50: > 100 µM
  TGI: > 100 µM
COLO 205 colon
  GI50: > 100 µM
  TGI: > 100 µM
XF 498 CNS
  GI50: > 100 µM
  TGI: > 100 µM
CAKI-1 renal
  GI50: > 100 µM
  TGI: > 100 µM
SN12C renal
  GI50: > 100 µM
  TGI: > 100 µM
ACHN renal
  GI50: > 100 µM
  TGI: > 100 µM
SK-MEL-2 melanoma
  GI50: > 100 µM
  TGI: > 100 µM
HCC-2998 colon
  GI50: > 100 µM
  TGI: > 100 µM
